Structures can show the parent of a compound that is named as a salt.
Legend:
[1] = test system: cortical/hippocampal neuronal cultures; assay: neurotoxicity in cortical/hippocampal neuronal cultures; format: cell-based; settings: concentrations ranging from 10^−7M to 10^−4 M
[2] = target: T1, amyloid peptide (Homo sapiens, UniProt P05067); assay: amyloid peptide solubility assay (overnight incubation, centrifugation, determination of soluble peptide); format: biochemical; settings: compound and amyloid peptide incubated together overnight, preliminary result, buffer composition may have interfered
T1 construct: Aβ is a 40 amino acid protein associated with Alzheimer's disease

[3] = target: T2, Aβ peptide (Homo sapiens, UniProt P05067); assay: in vitro circular dichroism (CD) assay for formation of β-sheet secondary structure; format: biochemical; settings: Aβ peptide with test compound in 10 mM Tris-HCl pH 7, incubated 0 or 24 hours at 37° C.
T2 construct: Aβ is a 40 amino acid protein associated with Alzheimer's disease; made in house; host or cells: chemical solid-phase peptide synthesis (no expression host)
Description: It is known that amyloidogenic peptides or proteins which have formed amyloid deposits or plaques have a significant amount of β-sheet secondary structure, while the unaggregated peptide or protein generally has less β-sheet structure. It is believed that the ability of a candidate therapeutic compound to prevent the formation of β-sheet secondary structure in vitro may be correlated with the ability of the compound to inhibit amyloidogenesis in vivo. Accordingly, phosphonate compounds were assayed for ability to prevent the formation of β-sheet secondary structure in assay systems including an in vitro circular dichroism (CD) assay.
Aβ is a 40 amino acid protein associated with Alzheimer's disease. Aβ peptide was prepared and purified as described in Fraser, P. E. et al., Biochemistry 31, 10716 (1992). Briefly, the peptide was synthesized by standard solid-phase techniques and purified by HPLC according to well known procedures.
All CD experiments were performed on a commercially available instrument. The cell is was maintained at 25° C. using a circulating water bath. Computer-averaging of traces was performed to improve signal-to-noise ratios. The solvent signal was subtracted. CD experiments were performed for each test compound according to the following procedure:
A stock solution of purified peptide was made by dissolving the peptide in phosphate-buffered saline (PBS) to a concentration of 2 mg/ml. A test solution was made for each potential therapeutic agent (test compound) as shown below:
The control sample had no test compound, and a total of 5 μl distilled water was added. The test solution was incubated for either 0 or 24 hours at 37° C. before CD measurement. The size minimum in the CD spectrum at 218 nm is believed to be diagnostic of the presence of β-pleated sheet. Comparison of the minimum at 218 nm of a candidate compound, compared to the minimum of a control sample, is believed to be indicative of the ability of the candidate compound to inhibit the formation of β-pleated sheet.

T2 sequence (P05067 672-711 limits assumed): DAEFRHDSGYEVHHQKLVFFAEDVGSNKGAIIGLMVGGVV
T1 sequence (P05067 672-711 limits assumed): as above

Compound	neurotoxicity [1]	effect on amyloid peptide solubility [2]	reduction of β-sheet formation as measured by the CD assay (minimum at 218 nm versus control) [3]
O=C(O)P(=O)(O)O [phosphonoformate trisodium salt, Trisodium phosphonoformate]	no significant toxicity	little effect on amyloid peptide solubility	significantly and reproducibly reduce the amount of β-sheet formation
O=C(O)CP(=O)(O)O [Phosphonoacetate]			active
O=C(O)CCP(=O)(O)O [2 carboxyethylphosphonic acid]			lower ability to prevent β-pleated sheet formation

Source: patent publication US6440952B2, “Phosphono-carboxylate compounds for treating amyloidosis” (Queen's University at Kingston, priority 1999, dated 2002)
